{"source": "paper PMC8617627", "about": "“Novel DYRK1A Inhibitor Rescues Learning and Memory Deficits in a Mouse Model of Down Syndrome” (Pharmaceuticals, 2021)", "experiment_in_all_cases": "Kinase profile (33P ATP filter binding)", "type_in_all_cases": "biochemical", "conditions_in_all_cases": "read-out: Remaining protein kinase activity", "key": {"TGFBR1": {"biological_target": "T1, TGFBR1 (Homo sapiens, UniProt P36897)", "T1 sequence (P36897 34-503)": "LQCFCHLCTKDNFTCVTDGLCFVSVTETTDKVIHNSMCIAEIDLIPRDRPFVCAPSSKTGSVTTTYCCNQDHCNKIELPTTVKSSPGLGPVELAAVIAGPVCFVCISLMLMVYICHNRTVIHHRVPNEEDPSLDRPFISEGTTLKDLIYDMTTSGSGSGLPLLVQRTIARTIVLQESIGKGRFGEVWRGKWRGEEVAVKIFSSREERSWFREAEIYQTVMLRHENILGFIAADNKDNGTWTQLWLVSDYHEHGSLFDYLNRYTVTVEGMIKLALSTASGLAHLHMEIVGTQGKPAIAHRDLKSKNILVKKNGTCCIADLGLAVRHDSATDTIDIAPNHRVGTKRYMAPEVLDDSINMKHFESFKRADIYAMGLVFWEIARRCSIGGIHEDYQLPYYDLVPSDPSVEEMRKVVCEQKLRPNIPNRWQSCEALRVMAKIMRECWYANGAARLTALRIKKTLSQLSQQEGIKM"}, "PAK2": {"biological_target": "PAK2 (Homo sapiens, UniProt Q13177)", "sequence (Q13177 whole entry)": "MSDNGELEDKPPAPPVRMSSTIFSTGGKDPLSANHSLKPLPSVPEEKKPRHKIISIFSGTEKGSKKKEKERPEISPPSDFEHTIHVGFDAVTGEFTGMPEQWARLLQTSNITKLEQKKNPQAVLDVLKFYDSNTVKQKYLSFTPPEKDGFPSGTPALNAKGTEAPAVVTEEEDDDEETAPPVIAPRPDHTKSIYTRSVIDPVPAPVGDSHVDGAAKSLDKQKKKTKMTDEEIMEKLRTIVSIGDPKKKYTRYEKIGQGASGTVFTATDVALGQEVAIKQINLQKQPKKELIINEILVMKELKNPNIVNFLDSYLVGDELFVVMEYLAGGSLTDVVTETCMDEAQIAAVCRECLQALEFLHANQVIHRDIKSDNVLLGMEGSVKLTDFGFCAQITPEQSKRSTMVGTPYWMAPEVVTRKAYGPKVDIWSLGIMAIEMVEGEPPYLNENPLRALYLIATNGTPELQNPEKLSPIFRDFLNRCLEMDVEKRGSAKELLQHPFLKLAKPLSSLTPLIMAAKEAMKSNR"}, "SGK1": {"biological_target": "T2, SGK1 (Homo sapiens, UniProt O00141)", "T2 sequence (O00141 1-431)": "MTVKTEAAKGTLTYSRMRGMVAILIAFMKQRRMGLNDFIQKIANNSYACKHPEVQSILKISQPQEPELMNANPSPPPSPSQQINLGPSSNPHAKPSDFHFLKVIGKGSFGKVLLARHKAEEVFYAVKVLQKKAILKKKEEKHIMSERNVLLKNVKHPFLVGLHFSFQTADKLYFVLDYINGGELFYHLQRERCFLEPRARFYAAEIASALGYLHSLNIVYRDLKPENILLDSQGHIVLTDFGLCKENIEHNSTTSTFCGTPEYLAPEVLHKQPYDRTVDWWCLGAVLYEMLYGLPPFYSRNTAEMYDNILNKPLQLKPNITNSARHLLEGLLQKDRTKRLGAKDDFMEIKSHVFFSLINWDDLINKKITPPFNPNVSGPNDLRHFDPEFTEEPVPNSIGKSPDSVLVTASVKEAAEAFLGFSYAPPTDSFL"}, "BRSK2": {"biological_target": "T3, BRSK2 (Homo sapiens, UniProt Q8IWQ3)", "T3 sequence (Q8IWQ3 1-736)": "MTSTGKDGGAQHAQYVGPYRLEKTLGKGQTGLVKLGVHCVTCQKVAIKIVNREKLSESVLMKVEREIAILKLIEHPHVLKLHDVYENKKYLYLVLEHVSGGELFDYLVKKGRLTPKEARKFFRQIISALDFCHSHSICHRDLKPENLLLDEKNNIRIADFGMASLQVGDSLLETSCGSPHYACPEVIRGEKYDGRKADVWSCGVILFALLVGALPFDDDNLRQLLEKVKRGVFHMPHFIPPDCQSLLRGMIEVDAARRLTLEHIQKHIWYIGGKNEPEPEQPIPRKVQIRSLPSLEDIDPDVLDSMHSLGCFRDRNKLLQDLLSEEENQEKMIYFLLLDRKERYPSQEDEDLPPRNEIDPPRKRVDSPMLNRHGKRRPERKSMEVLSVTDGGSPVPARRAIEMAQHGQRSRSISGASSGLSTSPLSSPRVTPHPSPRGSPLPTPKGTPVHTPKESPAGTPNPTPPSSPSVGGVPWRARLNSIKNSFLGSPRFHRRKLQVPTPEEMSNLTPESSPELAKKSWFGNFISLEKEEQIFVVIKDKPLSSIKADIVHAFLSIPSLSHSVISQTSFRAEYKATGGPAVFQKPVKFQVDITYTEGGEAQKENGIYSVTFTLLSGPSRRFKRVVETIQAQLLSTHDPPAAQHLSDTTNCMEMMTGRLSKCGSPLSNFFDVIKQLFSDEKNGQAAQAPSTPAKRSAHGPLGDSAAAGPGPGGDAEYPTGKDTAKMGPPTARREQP"}, "TESK1": {"biological_target": "TESK1 (Homo sapiens, UniProt Q15569)", "sequence (Q15569 whole entry)": "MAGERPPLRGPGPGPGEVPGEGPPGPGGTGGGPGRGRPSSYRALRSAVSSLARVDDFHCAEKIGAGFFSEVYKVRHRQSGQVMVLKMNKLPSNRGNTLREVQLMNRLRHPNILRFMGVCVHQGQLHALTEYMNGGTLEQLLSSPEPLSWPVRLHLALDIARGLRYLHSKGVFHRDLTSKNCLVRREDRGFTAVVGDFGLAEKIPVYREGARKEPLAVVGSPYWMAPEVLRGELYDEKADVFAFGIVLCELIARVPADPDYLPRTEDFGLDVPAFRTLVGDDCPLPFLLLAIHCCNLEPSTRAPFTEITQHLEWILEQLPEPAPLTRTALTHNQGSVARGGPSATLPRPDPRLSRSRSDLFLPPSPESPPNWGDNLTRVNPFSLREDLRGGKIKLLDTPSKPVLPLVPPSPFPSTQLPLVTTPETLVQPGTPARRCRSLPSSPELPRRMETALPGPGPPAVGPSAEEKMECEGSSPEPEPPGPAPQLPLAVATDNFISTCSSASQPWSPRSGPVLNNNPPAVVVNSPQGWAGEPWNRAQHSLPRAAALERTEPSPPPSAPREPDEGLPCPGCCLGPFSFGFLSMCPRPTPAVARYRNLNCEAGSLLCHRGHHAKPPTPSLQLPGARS"}, "p38b MAPK": {"biological_target": "p38b MAPK (Homo sapiens, UniProt Q15759)", "sequence (Q15759 whole entry)": "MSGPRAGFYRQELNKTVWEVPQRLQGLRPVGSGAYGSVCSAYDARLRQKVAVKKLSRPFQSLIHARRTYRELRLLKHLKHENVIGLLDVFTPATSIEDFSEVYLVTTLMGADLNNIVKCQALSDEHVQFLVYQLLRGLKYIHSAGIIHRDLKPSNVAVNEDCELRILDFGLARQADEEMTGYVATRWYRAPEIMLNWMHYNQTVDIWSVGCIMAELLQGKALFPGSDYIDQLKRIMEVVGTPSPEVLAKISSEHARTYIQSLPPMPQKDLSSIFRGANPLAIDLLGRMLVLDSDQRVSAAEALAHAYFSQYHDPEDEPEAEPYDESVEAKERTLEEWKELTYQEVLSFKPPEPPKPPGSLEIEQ"}, "EPH-A2": {"biological_target": "EPH-A2 (Homo sapiens, UniProt P29317)", "sequence (P29317 24-976)": "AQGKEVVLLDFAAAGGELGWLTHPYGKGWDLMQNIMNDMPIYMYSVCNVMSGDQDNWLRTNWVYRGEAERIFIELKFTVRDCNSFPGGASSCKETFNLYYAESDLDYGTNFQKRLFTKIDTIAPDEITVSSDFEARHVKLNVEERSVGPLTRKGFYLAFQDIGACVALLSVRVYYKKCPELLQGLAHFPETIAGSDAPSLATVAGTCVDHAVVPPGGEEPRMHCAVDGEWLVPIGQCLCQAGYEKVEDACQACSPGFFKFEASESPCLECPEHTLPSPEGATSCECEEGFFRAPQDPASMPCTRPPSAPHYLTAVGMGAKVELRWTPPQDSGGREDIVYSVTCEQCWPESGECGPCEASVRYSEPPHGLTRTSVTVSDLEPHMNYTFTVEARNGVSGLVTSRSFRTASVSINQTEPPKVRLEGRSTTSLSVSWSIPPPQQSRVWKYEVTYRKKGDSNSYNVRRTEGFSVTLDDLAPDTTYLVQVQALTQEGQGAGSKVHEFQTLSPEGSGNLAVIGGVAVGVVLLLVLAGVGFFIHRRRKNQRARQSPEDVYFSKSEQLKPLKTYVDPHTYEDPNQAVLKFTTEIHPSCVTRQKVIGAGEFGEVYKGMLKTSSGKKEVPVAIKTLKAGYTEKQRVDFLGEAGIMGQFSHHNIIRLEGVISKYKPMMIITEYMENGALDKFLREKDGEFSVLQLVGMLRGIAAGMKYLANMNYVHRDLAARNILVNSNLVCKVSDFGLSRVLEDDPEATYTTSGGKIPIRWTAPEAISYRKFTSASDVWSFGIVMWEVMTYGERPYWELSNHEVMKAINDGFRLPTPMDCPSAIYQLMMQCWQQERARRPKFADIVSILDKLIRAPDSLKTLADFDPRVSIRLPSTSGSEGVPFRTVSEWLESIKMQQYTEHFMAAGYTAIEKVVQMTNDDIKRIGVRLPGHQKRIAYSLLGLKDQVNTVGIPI"}}, "note": "Where two headings read alike, the source gives them in different places.", "data": [{"smiles": "COc1ccc2sc(-c3cncc(NC(C)=O)c3)nc2c1", "note": "[PST-001, N-(5-(5-Methoxybenzo[d]thiazol-2-yl)pyridin-3-yl)acetamide]", "values": [{"measurement": "remaining activity at 1 µM", "setting": "TGFBR1", "result": 112, "unit": "%"}, {"measurement": "remaining activity at 100 µM", "setting": "TGFBR1", "result": 129, "unit": "%"}, {"measurement": "remaining activity at 1 µM", "setting": "PAK2", "result": 114, "unit": "%"}, {"measurement": "remaining activity at 100 µM", "setting": "PAK2", "result": 122, "unit": "%"}, {"measurement": "remaining activity at 1 µM", "setting": "SGK1", "result": 102, "unit": "%"}, {"measurement": "remaining activity at 100 µM", "setting": "SGK1", "result": 82, "unit": "%"}, {"measurement": "remaining activity at 1 µM", "setting": "BRSK2", "result": 128, "unit": "%"}, {"measurement": "remaining activity at 100 µM", "setting": "BRSK2", "result": 125, "unit": "%"}, {"measurement": "remaining activity at 1 µM", "setting": "TESK1", "result": 105, "unit": "%"}, {"measurement": "remaining activity at 100 µM", "setting": "TESK1", "result": 85, "unit": "%"}, {"measurement": "remaining activity at 100 µM", "setting": "p38b MAPK", "result": 115, "unit": "%"}, {"measurement": "remaining activity at 1 µM", "setting": "EPH-A2", "result": 124, "unit": "%"}, {"measurement": "remaining activity at 100 µM", "setting": "EPH-A2", "result": 119, "unit": "%"}]}, {"smiles": "COc1ccc2sc(-c3cncc(N)c3)nc2c1", "note": "[compound 1, 5-(5-Methoxybenzo[d]thiazol-2-yl)pyridin-3-amine]", "values": [{"measurement": "remaining activity at 1 µM", "setting": "TGFBR1; TGFBR1, 1 μM", "result": 105, "unit": "%"}, {"measurement": "remaining activity at 100 µM", "setting": "TGFBR1; TGFBR1, 100 μM", "result": 118, "unit": "%"}, {"measurement": "remaining activity at 1 µM", "setting": "PAK2; PAK2, 1 μM", "result": 110, "unit": "%"}, {"measurement": "remaining activity at 100 µM", "setting": "PAK2; PAK2, 100 μM", "result": 103, "unit": "%"}, {"measurement": "remaining activity at 1 µM", "setting": "SGK1; SGK1, 1 μM", "result": 99, "unit": "%"}, {"measurement": "remaining activity at 100 µM", "setting": "SGK1; SGK1, 100 μM", "result": 62, "unit": "%"}, {"measurement": "remaining activity at 1 µM", "setting": "BRSK2; BRSK2, 1 μM", "result": 125, "unit": "%"}, {"measurement": "remaining activity at 100 µM", "setting": "BRSK2; BRSK2, 100 μM", "result": 53, "unit": "%"}, {"measurement": "remaining activity at 1 µM", "setting": "TESK1; TESK1, 1 μM", "result": 110, "unit": "%"}, {"measurement": "remaining activity at 100 µM", "setting": "TESK1; TESK1, 100 μM", "result": 28, "unit": "%"}, {"measurement": "remaining activity at 1 µM", "setting": "p38b MAPK; p38b MAPK, 1 μM", "result": 119, "unit": "%"}, {"measurement": "remaining activity at 100 µM", "setting": "p38b MAPK; p38b MAPK, 100 μM", "result": 101, "unit": "%"}, {"measurement": "remaining activity at 1 µM", "setting": "EPH-A2; EPH-A2, 1 μM", "result": 112, "unit": "%"}, {"measurement": "remaining activity at 100 µM", "setting": "EPH-A2; EPH-A2, 100 μM", "result": 90, "unit": "%"}]}]}
